Reference: US20200016155A1, “COMPOSITIONS AND TREATMENT OF HEART DEFICIENCY IN NON-HUMAN ANIMALS” (CEVA SANTE ANIMALE, priority 2007, published 2020)
Where two headings read alike, the source gives them in different places.

How the values were obtained:
[1] = tested on: aldosterone effect on log([Na+]urinary×10/[K+]urinary); assay: Anti-aldosterone activity model (Hofman): urinary log([Na+]x10/[K+]) in dogs given aldosterone; assay type: in vivo, dog; details: for inhibition of the effect of aldosterone on log ([Na+]urinary×10/[K+]urinary): first 6 hours and 12 hours after dosage
Experimental: The model for assessing the anti-aldosterone activity as described by Hofman L. M et al. (1975, The Journal of Pharmacology and Experimental Therapeutics. 194, 450-456) was used. […] A preliminary study was performed in order to determining the ED80 value for the natriuretic effect of aldosterone on its own. […] An elimination period of at least 48 hours was left between each administration.
The dogs described above were allocated to different treatment groups (A, B, C, D, and E) and a rest period was left between treatments.
A negative control group A only received the pharmaceutical excipient. The positive control group B only received 3 μg/kg of aldosterone. […] 200 g food was then given immediately after treatment.
The tubes were centrifuged rapidly at 1500 rpm for 10 minutes (at a temperature of +4° C.±2° C.), and the plasma was distributed in two propylene tubes (1.2 mL). The samples were frozen and kept in the dark at approx. −80° C. On the day of the fest, the bladders of the animals were emptied by catherisation, then 6 and 24 hours after treatment. Also, the urine was collected during the time periods ranging from T0-T6h; T6h-T12h and T12h-T24h.
The sodium and potassium contents in urines were determined using […]. […] According to this method 500 μL plasma were mixed with ethyl acetate (80/20,V/V) as solvents. […] The compounds and the internal standard (i.e. methyl-testosterone) were separated on a Kromasil C18 column. The quantification levels were 10 μg/L for all compounds within +/−14% variation.
E0, Elog ({Na+)urinary×10/[K+}) max dose and ED50 were obtained by nonlinear regression, and n is the Hill coefficient describing the dose effect relation.

[2] = Pharmacokinetic study with 22-14C spironolactone, rat; assay type: in vivo; details: rats, after 4 hour oral administration
[3] = Pharmacokinetic study with 22-14C spironolactone, dog; assay type: in vivo; details: dogs, after 4 hour oral administration
[4] = Pharmacokinetic study with 22-14C spironolactone, monkey; assay type: in vivo; details: monkeys, after 4 hour oral administration
[5] = tested on: dogs affected by heart failure; assay: Multicentre randomised double-blind placebo-controlled clinical studies in dogs affected by heart failure; assay type: in vivo, dog; details: group of dogs on spironolactone
Experimental: Multicentre, randomised, double-blind placebo-controlled clinical studies were conducted.
For gauging the effects of the treatment, both groups were examined five times, i.e., on the first day of treatment (D1), then on the 84th day (D84), […], 252nd day (D252) and 336th day (D336). This examination consisted of a clinical examination of the dogs, urine and blood analyses, and a radiograph. Moreover, an echocardiograph was taken on days D1, D168 and D336.
Also, the effects of the treatment were assessed on the symptoms such as cough and mobility, as well as on the prevention of symptoms such as dyspnoea, pulmonary edema, and tolerance to effort.

[6] = Plasmatic potassium (kaliemia) measurements during the clinical studies; assay type: in vivo, dog
Experimental: The plasmatic potassium concentrations (mmol/L) were measured during the treatments. […] Only sporadic case of low or moderate hyperkaliemia could be observed and these events were transient. Indeed, these hyperkaliemia events could only be observed a couple of times during examinations, and some of them were present on day D1, before the beginning of the treatment.

[7] = tested on: patients affected by severe heart failure; details: 25 mg spironolactone with CEI, ansa diuretics, sometimes digoxin; 822 patients; cited from earlier work
human patient = details: cited from earlier work

## C[C@]12CCC(=O)C=C1CC[C@@H]1[C@@H]2[C@@H](O)C[C@]2(C=O)[C@@H](C(=O)CO)CC[C@@H]12 [aldosterone]
[1]; basic effect after aldosterone on its own (positive control), 0 to 6 hours
  E0 (control group): 0.527

## CC(=O)S[C@@H]1CC2=CC(=O)CC[C@]2(C)[C@H]2CC[C@@]3(C)[C@@H](CC[C@@]34CCC(=O)O4)[C@H]12 [spironolactone, 7α-acetylthio-3-oxo-17α-pregn-4-ene-21,17-carbolactone]
[2]
  plasma radioactivity percentage: 66%
[3]
  plasma radioactivity percentage: 76%
[4]
  plasma radioactivity percentage: 33%
[1]; 0.8 mg/kg
  natriuretic responses: no effect on certain dogs
[1]; 2 mg/kg
  natriuretic responses: completely reversed
  inhibition of the effect of aldosterone on log ([Na+]urinary×10/[K+]urinary): complete reversal of the effect
[1]; 8 mg/kg
  natriuretic responses: other increases in the elimination of Na were observed
  inhibition of the effect of aldosterone on log ([Na+]urinary×10/[K+]urinary): complete reversal of the effect
[1]; dose 0.8 mg/kg
  E(0.8 mg/kg)−E0: 0.3233
  restoring of the effect: 57%
[1]; dose approx. 2 mg/kg
  E(2 mg/kg): 0.4933
  restoring of the effect: 88%
[1]; urine collected 0 to 6 hours after administration of spironolactone, from 0.70±0.22
  log ([Na+]urinary×10/[K+]urinary), average: 1.14±0.18
[5]
  clinical symptoms: improved symptoms such as cough and mobility
[6]; 2 mg/kg/day, dogs
  variation in kaliemia: did not cause any variation in kaliemia or only low transient variations in kaliemia
[6]; 2-month clinical study (4 analyses)
  Low and transient hyperkaliemia (5.9 to 6.4 mmol/L), cases: 3
[6]; 3-month clinical study (6 analyses)
  Low and transient hyperkaliemia (5.9 to 6.4 mmol/L), cases: 5
[6]; 12-month clinical study (5 analyses)
  Low and transient hyperkaliemia (5.9 to 6.4 mmol/L), cases: 3
[6]; FIG. 9, spironolactone 2 mg/kg/day + CEI
  progression of average plasmatic potassium (kaliemia): stable kaliemia
[7]
  dead in the spironolactone group, percentage: 35%
  number of dead in the spironolactone group: 284
Human patient; 12.5 mg/day
  Therapeutic effect in human: Significant reduction in morbidity/
Human patient; 25 mg/day
  Therapeutic effect in human: Significant reduction in morbidity/
Human patient; 50 mg/day
  Therapeutic effect in human: Significant reduction in morbidity/
Human patient; 75 mg/day
  Therapeutic effect in human: Significant reduction in morbidity/
